Patent US6737407B1, “Treatment of obesity” (Metabolic Pharmaceuticals, Ltd., priority 1997, dated 2004)
Bridges are numbered along the chain shown (N, C = ends). Where no end group is shown, it is not given here.

Experiments:
[1] = system: adipose tissues from male Zucker fatty (fa/fa) rats; test: In vitro glycerol release during lipolysis in isolated adipose tissue; format: cell-based, rat
Experimental: (§1) Adipose tissues were removed from animals and sliced into segments of approximately 200 mg each. Then the tissues were pre-incubated in 25 ml vials containing 2 ml of Krebs-Ringerbicarbonate (KRB) buffer, 4% defatted BSA and 5.5 mM glucose under an atmosphere of carbogen (95%O2/ 5%CO2) at 37° C. for 1 hour. Tissues were then transferred to another vials with fresh medium and the incubation was initiated by adding hGH 177-191 peptide or analogues into the vials. The mixtures were then incubated at 37° C. for 90 minutes. After incubation, the tissues wee removed and aliquots (200 μl) of samples withdrawn from the medium were assayed for the contents of glycerol or free fatty acid (FFA) either by the enzyme assay (glycerol kinase) or calorimetric (copper-dye) spectrometry. The NADH or color produced was then monitored by the absorption at 340 nm and 610 nm, respectively.

C57BL/6J (ob/ob) mice = test: Chronic treatment of C57BL/6J (ob/ob) mice with peptide analogues; format: in vivo, mouse
Experimental: Animals were given a daily intraperitoneal injection of either saline (as control) or peptide analogue (500 μg/kg body weight). Each point represents the mean±SEM of 6 animals.
The treatment for the two groups of animals was as described in FIG. 11A. Each point represents the mean±SEM of 6 animals.
The animals of the same age and same sex were randomly divided into two groups, housed 6 per cage and maintained on a normal 12-hr light/dark cycle at a constant room temperature of 25° C. in the animal house of the Department of Biochemistry and—Molecular Biology, Monash University, Clayton, Australia. Animals were fed ad libitum on pre-determined quantity of animal pellets (Clark King, Melboume, Australia) and allowed free access to water at all times. The animals were given a daily intraperitoneal (i.p) injection of 0.1 ml of either the synthetic peptide (200-500 μg/kg body weight) or equivalent volume of physiological saline (0.9% sodium chloride) for appropriate number of days. The i.p. injection was administered with a 30G×½″ (0.31×13 mm) needle on a 1-ml disposable tuberculin syringes, and the site of injection was the lower left quadrant of the abdomen of the animals. To study the effects of controlled-delivery of hGH 177-191 and analogues, slow-release peptide-pellets in a diameter of 3 mm were implanted intradermally in the abdominal region of Zucker rats under anaesthesia. The body weight and food intake were monitored for the periods of time as indicated.
Cumulative weight gain and food consumption were determined at 3-day intervals by the measurements of body weight and uneaten food remaining in the cages. The animals were placed in a covered chamber to minimise movement during the weighing procedure. The food consumption data were obtained by subtracting the amount of uneaten food remaining in the cages from the original provision.
The animals were anaesthetised with sodium pentobarbitone (80 mg/kg body weight) 12 hr after the last dose of hGH 177-191. Blood samples were collected from the tail vein of anaesthetised animals 45 mins after the administration of anaesthetic. After being centrifuged at 2000×g for 5 minutes, plasma was removed from the samples and used for metabolite assays. Triglyceride and total cholesterol in plasma were measured by enzyme-spectrophotometric methods. The reagents are based on either a modified glycerol phosphate oxidase (GPO)-Trinder's type colour reaction^24 or a cholesterol oxidase-4-aminoantipyrine method^25. All assays were performed with the CentrifiChem System 400 (Union Carbide) containing an automated pipetter, a centrifugal analyser and a recording spectrophotometer. Seronorm Lipid (Nycomed Pharma Co., Oslo, Norway) was used as the calibrator.

[2] = system: adipose tissues from male Zucker fatty (fa/fa) rats; test: In vitro inhibition of lipogenesis in isolated adipose tissue; format: cell-based, rat; conditions: for activity according to the in vivo and in vitro assay results (in words): structure-activity summary; for In vitro lipogenesis % of control / In vitro lipogenesis Activity / In vitro lipogenesis, rate of [C14]-glucose incorporation into [C14]-lipid: peptide 0.3 μM, insulin 0.1 mU/ml; for In vitro lipogenesis, rate of [C14]-glucose incorporation into [C14]-lipid: KRB buffer
Experimental: (§2) The rate of the incorporation of exogenous [C^14]-glucose into total lipid in adipose tissue was measured as the index of anti-lipogenic activity of hGH 177-191.
(§3) Adipose tissues were sliced into segments of approximately 200 mg each and then placed in Krebs-Ringer bicarbonate (KRB) buffer (pH 7.4) containing 2% defatted BSA, and glucose (0.1 mg/ml) and gassed with 95% O2-5% CO2 at 37° C. After 1 hr preincubation, the tissues were transferred to another 2 ml of fresh media containing [C^14]-glucose (final specific activity 0.05 μCi/μmol), and 0.3 μM of hGH 177-191 in the presence or absence of insulin (0.1 mU/ml) for a further 90 min incubation (conditions as above). Then the tissues were removed, washed thoroughly with KRB buffer and lipid was extracted with 5 ml of chlorofom/methanol (2:1, v/v) The extraction solution was washed with 2 ml of MeOH-H2O solution containing 0.1% MgCl2. A 2.5 ml aliquot of the washed extraction solution was taken and transferred to scintillation vials. The [C^14] radioactivity was measured with a liquid scintillation counter. The rates of total lipid synthesis were expressed as μmol [C^14]-glucose incorporated into lipid/g tissue/hr.

[3] = system: Human Abdominal adipose Tissue; test: Antilipogenic activity in human abdominal adipose tissue; format: cell-based; conditions: 0.1 μM peptide; BSA + insulin
Experimental: as §2
as §3, with “and 0.3 μM of hGH 177-191 in the presence or absence” left out
(§4) Tables 6 and 7 show the in vitro antilipogenic and lipolytic activity of hGH 177-191 and two representative analogues (Ref Nos. 9604 and 9605) on human adipose tissue.

Porcine adipose Tissue = test: Lipolytic activity in porcine adipose tissue; format: cell-based, pig; conditions: 0.5 μM peptide
Experimental: as §1
Since corresponding sequences of non-human mammals are effectively peptide variants of the human sequence, it is also therefore expected that those corresponding sequences will be effective in other mammals including humans.

[4] = system: Human Subcutaneous adipose Tissue; test: Lipolytic activity in human subcutaneous adipose tissue; format: cell-based; conditions: 0.5 μM peptide
Experimental: as §1, §4

[5] = Post-treatment (Day 20-38), saline
[6] = Treatment (Day 0-18), i.p. 500 μg/kg daily

Substance: 9401 (LRIVQCRSVEGSCGF; listed as Homo sapiens) [compound 9401]
- Glycerol release ([1]; peptide concentration 0.1 μM): 1.82 ± 0.02 μmol/g tissue/hr
- Glycerol release ([1]; peptide concentration 1.0 μM): 1.86 ± 0.12 μmol/g tissue/hr

Substance: 9403 (LRKVQCRSVEGSCGF; disulfide 6-13; listed as Homo sapiens) [compound 9403]
- average daily food consumption / appetite versus control (in words) (C57BL/6J (ob/ob) mice; 26-week-old ob/ob mice, FIG. 11B): No significance
- Ave. food consumption (C57BL/6J (ob/ob) mice; [5]): 5.03 ± 0.13 g/mouse/day
- Blood glucose (C57BL/6J (ob/ob) mice; [5]): 6.0 ± 1.0 mM
- Body weight gain (C57BL/6J (ob/ob) mice; [5]): 2.00 ± 0.24 g
- Final body weight (C57BL/6J (ob/ob) mice; [5]): 56.70 ± 4.45 g
- Triglyceride (C57BL/6J (ob/ob) mice; [5]): 0.54 ± 0.15 mM
- Ave. food consumption (C57BL/6J (ob/ob) mice; [6]): 4.82 ± 0.22 g/mouse/day
- Blood glucose (C57BL/6J (ob/ob) mice; [6]): 6.2 ± 0.8 mM
- Body weight gain (C57BL/6J (ob/ob) mice; [6]): -0.32 ± 0.23 g
- Final body weight (C57BL/6J (ob/ob) mice; [6]): 54.42 ± 4.66 g
- Triglyceride (C57BL/6J (ob/ob) mice; [6]): 0.49 ± 0.10 mM
- Initial body weight (C57BL/6J (ob/ob) mice; female ob/ob mice 26 weeks, Treatment (Day 0-18), i.p. 500 μg/kg daily): 54.74 ± 4.96 g
- Initial body weight (C57BL/6J (ob/ob) mice; female ob/ob mice, Post-treatment (Day 20-38), saline): 54.70 ± 4.15 g
- anti-obesity action on body weight gain (in words) (C57BL/6J (ob/ob) mice; obese mice, FIG. 11A, i.p. 500 μg/kg daily, 18 days): anti-obesity actions
- Glycerol release ([1]; peptide concentration 0.1 μM): 1.80 ± 0.03 μmol/g tissue/hr
- Glycerol release ([1]; peptide concentration 1.0 μM): 1.88 ± 0.13 μmol/g tissue/hr

Substance: 9404 (LRIVQCRSVEGSCGF-NH2; disulfide 6-13; N-terminus assumed; SMILES CC[C@H](C)[C@H](NC(=O)[C@H](CCCNC(=N)N)NC(=O)[C@@H](N)CC(C)C)C(=O)N[C@H](C(=O)N[C@@H](CCC(N)=O)C(=O)N[C@H]1CSSC[C@@H](C(=O)NCC(=O)N[C@@H](Cc2ccccc2)C(N)=O)NC(=O)[C@H](CO)NC(=O)CNC(=O)[C@H](CCC(=O)O)NC(=O)[C@H](C(C)C)NC(=O)[C@H](CO)NC(=O)[C@H](CCCNC(=N)N)NC1=O)C(C)C; listed as Homo sapiens) [compound 9404]
- Glycerol release ([1]; peptide concentration 0.1 μM): 1.75 ± 0.12 μmol/g tissue/hr
- Glycerol release ([1]; peptide concentration 1.0 μM): 1.94 ± 0.12 μmol/g tissue/hr

Substance: 9407 (LRIVQCKSVEGSCGF; disulfide 6-13; listed as Homo sapiens) [compound 9407]
- Glycerol release ([1]; peptide concentration 0.1 μM): 1.83 ± 0.11 μmol/g tissue/hr
- Glycerol release ([1]; peptide concentration 1.0 μM): 1.79 ± 0.07 μmol/g tissue/hr
- activity according to the in vivo and in vitro assay results (in words) [2]: retains activity

Substance: 9604 (YLRIVQCRSVEGSCGF; disulfide 7-14; listed as Homo sapiens) [compound 9604]
- cumulative weight gain (in words) (C57BL/6J (ob/ob) mice; 16-week old ob/ob mice, chronic treatment, FIG. 12): exceptional efficacy
- 14C incorporation [3]: 28 ± 3 Av DPM/mg tissue/hour
- Glycerol released (Porcine adipose Tissue): 1600 ± 20 nmol/mg tissue/hour

Substance: 9605 (KLRIVQCRSVEGSCGF; disulfide 7-14; listed as Homo sapiens) [compound 9605]
- 14C incorporation [3]: 36 ± 2 Av DPM/mg tissue/hour
- Glycerol released [4]: 1100 ± 80 nmol/mg tissue/hour
- Glycerol released (Porcine adipose Tissue): 1350 ± 80 nmol/mg tissue/hour

Substance: 9612 (LRIVQCRAVEGSCGF; disulfide 6-13; listed as Homo sapiens) [Compound 9612]
- In vitro lipogenesis % of control [2]: 79 % of control
- In vitro lipogenesis Activity [2]: Active
- In vitro lipogenesis, rate of [C14]-glucose incorporation into [C14]-lipid [2]: 191 ± 20 nmol/g tissue/hr

Substance: 9613 (LRIVQCRSAEGSCGF; disulfide 6-13; listed as Homo sapiens) [Compound 9613]
- In vitro lipogenesis % of control [2]: 78 % of control
- In vitro lipogenesis Activity [2]: Active
- In vitro lipogenesis, rate of [C14]-glucose incorporation into [C14]-lipid [2]: 189 ± 16 nmol/g tissue/hr

Substance: 9614 (LRIVQCRSVAGSCGF; listed as Homo sapiens) [Compound 9614]
- In vitro lipogenesis % of control [2]: 96 % of control
- In vitro lipogenesis Activity [2]: Inactive
- In vitro lipogenesis, rate of [C14]-glucose incorporation into [C14]-lipid [2]: 233 ± 13 nmol/g tissue/hr

Substance: 9615 (LRIVQCRSVEASCGF; disulfide 6-13; listed as Homo sapiens) [Compound 9615]
- In vitro lipogenesis % of control [2]: 76 % of control
- In vitro lipogenesis Activity [2]: Active
- In vitro lipogenesis, rate of [C14]-glucose incorporation into [C14]-lipid [2]: 183 ± 17 nmol/g tissue/hr

Substance: 9616 (LRIVQCRSVEGACGF; disulfide 6-13; listed as Homo sapiens) [Compound 9616]
- In vitro lipogenesis % of control [2]: 84 % of control
- In vitro lipogenesis Activity [2]: Active
- In vitro lipogenesis, rate of [C14]-glucose incorporation into [C14]-lipid [2]: 203 ± 19 nmol/g tissue/hr

Substance: 9617 (LRIVQCRSVEGSAGF; listed as Homo sapiens) [Compound 9617]
- In vitro lipogenesis % of control [2]: 92 % of control
- In vitro lipogenesis Activity [2]: Inactive
- In vitro lipogenesis, rate of [C14]-glucose incorporation into [C14]-lipid [2]: 223 ± 16 nmol/g tissue/hr

Substance: 9617 (LRIVQCRSVEGSAGF; listed as Homo sapiens) [compound 9617]
- activity according to the in vivo and in vitro assay results (in words) [2]: inactive

Substance: 9618 (KKLRIVQCRSVEGSCGF; disulfide 8-15; listed as Homo sapiens) [Compound 9618]
- In vitro lipogenesis % of control [2]: 77 % of control
- In vitro lipogenesis Activity [2]: Active
- In vitro lipogenesis, rate of [C14]-glucose incorporation into [C14]-lipid [2]: 188 ± 19 nmol/g tissue/hr
